# Measured values: patent EP0894433B1, “A method of preparing a biocidal material” (EASTMAN KODAK COMPANY, priority 1997, dated 1999)
# Test: Partition coefficient between octanol and water by UV/visible absorption
# Format: physicochemical
# Conditions: partition coefficient n-octanol/water, 25°C; read-out: P
# Protocol: As used herein, it provides a measure of the hydrophobicity of the biocide.
# A variety of commercial and hydrophobically-modified biocides have been studied. Partition coefficients between octanol and water have been determined at 25°C by UV/visible absorption. First, the calibration curve of each biocide was determined as optical density (ODabs) versus concentration of biocide in µg/g (ppm) of water for the predominantly water-soluble materials and µg/g of octanol for the predominantly oil-soluble biocides.
# A known amount of biocide was placed in a glass vessel containing either 10ml of water or 10ml of octanol depending on the solubility of the biocide. An equal volume of the other solvent was added and the glass vessel sealed. The vessel was shaken vigorously for a few minutes and then every few hours for more than 48 hours. Each mixture was placed in a sealed separating funnel and left for a further 24 hours. The water phase of each mixture was removed and the UV/visible spectra run against water with appropriate dilutions to bring absorbance between 0 and 1.5 for the commercial biocides and the octanol fractions were examined for the hydrophobically modified biocides.
row,Structure (SMILES),logP
1,CCCCCCCCn1sc2ccccc2c1=O [Compound 1],> 2.52
2,CCCCCCCCCCCC[N+](C)(C)CCOc1ccccc1 [Domiphen™],~1.7
3,Cn1sc2c(c1=O)CCC2 [Promexal™],~0.653
4,CCCCCCCCn1sc(Cl)cc1=O [Compound 3],> 2.75
5,CCCCCCCCCCCCCCCCCCn1sc(Cl)cc1=O [Compound 4],> 2.68
6,CCCCCCCCCCCCCCCCn1sc2ccccc2c1=O [Compound 2],> 2.11
